Source: PubChem BioAssay (NCI)
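Briefly, cells in 96-well plates were exposed to five compound concentrations for 48 h, and endpoints were estimated by linear interpolation. GI50 = concentration required for 50% inhibition of growth. Definition used: TGI = concentration required for complete inhibition of growth.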

Legend:
Test in all cases: DTP human tumour cell line panel, 48 h
A549 NSCLC = system: A549 NSCLC
CCRF-CEM leukemia = system: CCRF-CEM leukemia
HOP-92 NSCLC = system: HOP-92 NSCLC
LOX IMVI melanoma = system: LOX IMVI melanoma
NCI-H226 lung = system: NCI-H226 lung
NCI-H522 lung = system: NCI-H522 lung
SNB-75 CNS = system: SNB-75 CNS
SR leukemia = system: SR leukemia
TK-10 renal = system: TK-10 renal
BT-549 breast = system: BT-549 breast

SMILES	TGI (A549 NSCLC) [µM]	TGI (CCRF-CEM leukemia) [µM]	TGI (HOP-92 NSCLC) [µM]	TGI (LOX IMVI melanoma) [µM]	TGI (NCI-H226 lung) [µM]	TGI (NCI-H522 lung) [µM]	TGI (SNB-75 CNS) [µM]	TGI (SR leukemia) [µM]	TGI (TK-10 renal) [µM]	GI50 (A549 NSCLC) [µM]	GI50 (BT-549 breast) [µM]	TGI (BT-549 breast) [µM]	GI50 (CCRF-CEM leukemia) [µM]	GI50 (HOP-92 NSCLC) [µM]	GI50 (LOX IMVI melanoma) [µM]	GI50 (NCI-H226 lung) [µM]	GI50 (NCI-H522 lung) [µM]	GI50 (SNB-75 CNS) [µM]	GI50 (TK-10 renal) [µM]	GI50 (SR leukemia) [µM]
NC1N=Nc2ccccc21 (configuration not stated)	> 100	> 100	> 100	> 100	> 100	> 100	> 100	> 100	> 100											
O=[N+]([O-])c1cc(-c2nc(=S)[nH][nH]2)ccc1O	> 100	> 100		> 100					> 100											
CNS(=O)(=O)OCC1OC(n2cnc3cncnc32)C(O)C1O (configuration not stated)	> 100	> 100	> 100	> 100	> 100	> 100	> 100		> 100	> 100	> 100	> 100	> 100	> 100	> 100	> 100	> 100	> 100	> 100	
N#CCCN(CCC#N)c1ccc(/C=C(/NC(=O)c2cc([N+](=O)[O-])ccc2Cl)C(=O)NN)cc1	> 100	> 100		> 100	> 100	> 100	> 100	> 100	> 100											
COc1cc2c3c(n(CCCN(CCCN(CCCn4c5c(c6ccccc6c4=O)C(=O)c4ccccc4-5)C(=O)OC(C)(C)C)C(=O)OC(C)(C)C)c(=O)c2cc1OC)-c1cc2c(cc1C3=O)OCO2	> 100		> 100	> 100		> 100	> 100	> 100	> 100	> 100	34.7	> 100		> 100	26.5		> 100	> 100	50.1	33.6
Cc1cc(=O)[nH]c(CNC(=O)c2ccc3ccccc3c2)n1	> 100	> 100	> 100	> 100	> 100	> 100	> 100	> 100	> 100											
O=C(Cc1ccccc1[N+](=O)[O-])C(CO)c1ccccc1[N+](=O)[O-] (configuration not stated)	> 100	> 100	93.3	> 100	> 100	70.5	> 100		> 100											
O=C(C=Nc1ccccc1C(=O)[O-])c1cccs1.O=C(C=Nc1ccccc1C(=O)[O-])c1cccs1.[Ni+2]	> 100	> 100	> 100	> 100		55.3		> 100	> 100											
COC(=O)C1CSC(c2csc(CCN)n2)=N1 (configuration not stated)	> 100	> 100	> 100	> 100	> 100	> 100	> 100	> 100	> 100											
Fc1cc(F)c(F)c(S)c1F	> 100	> 100	> 100	> 100	> 100	37.8	> 100		> 100			52								
